Reference: article PMC7880690, “Chemical genetics and proteome-wide site mapping reveal cysteine MARylation by PARP-7 on immune-relevant protein targets” (eLife, 2021)

How the values were obtained:
IG-PARP-7 (I631G PARP-7) = target: T1, IG-PARP-7 (I631G PARP-7) (Homo sapiens, UniProt Q7Z3E1, I631G); assay: Labeling by orthogonal NAD+ analogs in HEK 293T lysates expressing GFP-IG-PARP-7 (click with biotin-azide, Streptavidin-HRP); assay type: biochemical; conditions: HEK 293 T cell lysates, 100 µM NAD+ analog
T1 construct: expressed in transfected cells; host or cells: HEK 293T (lysate)
From the text: Identifying the protein targets of PARP-7 is a critical first step toward unraveling its function in cells. In previous work we have developed an engineered enzyme—modified substrate strategy for identifying relevant targets of individual PARP family members ([Carter-O'Connell et al., 2014]; [Carter-O'Connell et al., 2016]; [Carter-O'Connell and Cohen, 2015]; [Carter-O'Connell et al., 2018]). This chemical genetic (CG) method uses engineered PARPs and an orthogonal NAD^+ analogue that contains a clickable handle (e.g. an alkyne) that is located at the N-6 position of the adenine ring (5-Bn-6-a-NAD^+). […] Importantly, 5-Bn-6-a-NAD^+ is not used by wild-type (WT) PARPs and in this way is orthogonal to native NAD^+. […] We therefore sought a new orthogonal NAD^+ analogue that would serve as an efficient substrate for floor position engineered PARP-7, I631G PARP-7 (IG-PARP-7) (Figure 1a).
Figure 1. A chemical genetic strategy for identifying the direct MARylation targets of PARP-7. (a) Schematic of chemical genetic approach for identifying direct targets of PARP-7. (b) Crystal structure of human PARP1 bound to the non-hydrolyzable NAD^+ analog benzamide adenine dinucleotide (BAD). PDB: 6bhv. […] Following copper-catalyzed click chemistry with biotin-azide, proteins were resolved by SDS-PAGE and biotinylated proteins were detected by Western blot detection using Streptavidin-HRP. […]

PARP-7 = target: T2, PARP-7 (Homo sapiens, UniProt Q7Z3E1); conditions: time course in HEK 293 T cells
T2 sequence (Q7Z3E1 1-657): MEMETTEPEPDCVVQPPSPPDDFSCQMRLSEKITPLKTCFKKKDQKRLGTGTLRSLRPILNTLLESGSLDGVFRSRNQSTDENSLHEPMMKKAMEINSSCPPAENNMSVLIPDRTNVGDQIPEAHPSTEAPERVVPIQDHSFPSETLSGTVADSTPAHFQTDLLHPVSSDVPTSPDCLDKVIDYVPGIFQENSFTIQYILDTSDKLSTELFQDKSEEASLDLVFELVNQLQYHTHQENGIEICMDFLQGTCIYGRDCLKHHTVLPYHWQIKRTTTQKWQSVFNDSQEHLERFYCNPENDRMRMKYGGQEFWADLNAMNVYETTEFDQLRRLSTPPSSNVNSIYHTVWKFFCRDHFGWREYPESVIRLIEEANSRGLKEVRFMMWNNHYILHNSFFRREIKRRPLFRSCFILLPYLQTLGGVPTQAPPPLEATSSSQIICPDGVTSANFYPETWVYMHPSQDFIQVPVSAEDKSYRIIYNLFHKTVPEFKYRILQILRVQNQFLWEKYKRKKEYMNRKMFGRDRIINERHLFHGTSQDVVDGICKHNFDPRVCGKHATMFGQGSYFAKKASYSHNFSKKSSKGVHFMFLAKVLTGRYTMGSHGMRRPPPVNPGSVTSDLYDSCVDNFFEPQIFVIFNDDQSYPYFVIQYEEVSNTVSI

T1 sequence (Q7Z3E1 whole entry I631G): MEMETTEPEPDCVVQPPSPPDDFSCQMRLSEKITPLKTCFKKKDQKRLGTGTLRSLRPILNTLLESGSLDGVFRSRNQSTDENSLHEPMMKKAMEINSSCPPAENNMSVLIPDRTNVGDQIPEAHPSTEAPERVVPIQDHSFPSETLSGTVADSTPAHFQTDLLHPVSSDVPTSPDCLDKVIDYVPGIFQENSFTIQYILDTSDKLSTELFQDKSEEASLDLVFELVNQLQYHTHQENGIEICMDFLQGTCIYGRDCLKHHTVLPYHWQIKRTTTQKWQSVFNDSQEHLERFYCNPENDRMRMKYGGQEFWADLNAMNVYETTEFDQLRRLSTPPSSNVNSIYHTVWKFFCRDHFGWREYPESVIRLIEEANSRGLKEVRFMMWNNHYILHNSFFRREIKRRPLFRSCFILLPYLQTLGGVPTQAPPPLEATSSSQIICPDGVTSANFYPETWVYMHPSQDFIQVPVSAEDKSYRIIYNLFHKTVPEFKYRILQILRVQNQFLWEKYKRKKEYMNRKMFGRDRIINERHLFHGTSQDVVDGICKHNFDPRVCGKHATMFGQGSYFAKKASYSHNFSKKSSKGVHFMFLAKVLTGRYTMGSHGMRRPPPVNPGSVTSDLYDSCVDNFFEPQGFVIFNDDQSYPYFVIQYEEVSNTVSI

Structure (SMILES)	substrate for floor position engineered PARP-7 (IG-PARP-7) (IG-PARP-7 (I631G PARP-7))	decay of PARP-7-mediated MARylation of PARP-13.2 (PARP-7)
C#CCNc1ncnc2c1ncn2C1OC(COP(=O)(O)OP(=O)([O-])OCC2OC([n+]3cc(Cc4ccccc4)cc(C(N)=O)c3)C(O)C2O)C(O)C1O (centres unmarked) [5-Bn-6-a-NAD^+, reference compound]	poor substrate	
C[C@]1(c2nc3c(C(N)=O)cccc3[nH]2)CCCN1 [veliparib]		does not lead to the decay
